Reference: patent US9315475B2 (MERCK SHARP & DOHME CORP., priority 2011, dated 2016)
pEC50, pIC50: −log10 of the molar value. Like-named read-outs stand apart in the source and are kept apart here.

What was measured:
HIV-1 (H9IIIB strain) = assay: Antiviral acute infection assay in cell culture (Spread); assay type: cell-based; settings: Human immunodeficiency virus 1, T-lymphoid, HIV-1 H9IIIB infection of MT-4 human T-lymphoid cells in 10% FBS; mean of at least two independent experiments
From the text: Antiviral Assays in Cell Culture (“Spread”)
Acute Infection Assay (“Spread”) data were generated using HIV-1 (H9IIIB strain) infection of MT-4 human T-lymphoid cells in 10% FBS, and according to the methods disclosed by J. P. Vacca et al, “L-735,524: An orally bioavailable human immunodeficiency virus type 1 protease inhibitor,” Proc. Natl. Acad. Sci. USA, Vol. 91, pp. 4096-4100 (April 1994).

wildtype HIV-1 protease = molecular target: T1, wildtype HIV-1 protease (Human immunodeficiency virus type 1 group M subtype B, UniProt P04585); assay: Assay for inhibition of microbial expressed HIV protease (Pepcleav); assay type: biochemical; settings: wild type HIV-1 protease expressed in E. coli, peptide substrate, pH 5.5, mean of at least two independent experiments; for pIC50: read-out: Pepcleav
T1 construct: the wildtype HIV-1 protease (which was expressed in Escherichia coli); made in house; host or cells: Escherichia coli
Method in brief: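 E. coli-expressed wild-type HIV-1 protease (20 pM) preincubated 30 min at room temperature with inhibitor in pH 5.5 sodium acetate/NaCl/BSA buffer, then 400 μM Val-Ser-Gln-Asn-(βnaphthyl)Ala-Pro-Ile-Val added for 1 h at 30 °C. Quenched with formic acid; product quantified by LC-MS/MS peak area, indinavir internal standard.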

Structure (SMILES)	pIC50 (wildtype HIV-1 protease)	other results
CC(C)C(NC(=O)OC[C@@H]1CO[C@H](CCc2c(F)cncc2NC(=O)CC(c2ccc(F)cc2)c2ccc(F)cc2)CN1)C(C)C [Example 186, {(3S,6R)-6-[2-(3-{[3,3-bis(4-fluoro-phenyl)propanoyl]amino}-5-fluoropyridin-4-yl)ethyl]morpholin-3-yl}methyl [2-methyl-1-(1-methylethyl)propyl] carbamate]	–	pEC50 (HIV-1 (H9IIIB strain)): 7.18
N[C@H](C(=O)Nc1cccc(F)c1CC[C@@H]1CN[C@H](COC(=O)NCC(F)(F)F)CO1)[C@@H](c1ccc(F)cc1)C1CCOCC1 [Example 128, (βR)-4-Fluoro-N-(3-fluoro-2-{2-[(2R,5S)-5-({[(2,2,2-trifluoroethyl)carbamoyl]oxy}methyl)morpholin-2-yl]ethyl}phenyl)-β-(tetrahydro-2H-pyran-4-yl)-L-phenylalaninamide]	–	pEC50 (HIV-1 (H9IIIB strain)): 7.04
O=C(CC(c1ccc(F)cc1)c1ccc(F)cc1)Nc1cncc(F)c1CC[C@@H]1CN[C@H](COC(=O)NCCNc2ccccc2)CO1 [Example 168, {(3S,6R)-6-[2-(3-{[3,3-bis(4-fluorophenyl)propanoyl]amino}-5-fluoropyridin-4-yl)ethyl]morpholin-3-yl}methyl [2-(phenyl-amino)ethyl]carbamate]	–	pEC50 (HIV-1 (H9IIIB strain)): 7.89
O=C(C[C@@H](c1ccc(F)cc1)c1ccsc1)Nc1cccc(F)c1CC[C@@H]1CN[C@H](COC(=O)NCC(F)(F)F)CO1 [Example 183, {(3S,6R)-6-[2-(2-fluoro-6-{[(3S)-3-(4-fluorophenyl)-3-thiophen-3-ylpropanoyl]amino}phenyl)ethyl]morpholin-3-yl}methyl (2,2,2-trifluoroethyl)carbamate]	–	pEC50 (HIV-1 (H9IIIB strain)): 6.16
N[C@H](C(=O)Nc1cccc(F)c1CC[C@@H]1CN[C@H](CNC(=O)OCC(F)(F)F)CO1)C(c1ccc(F)cc1)c1ccc(F)cc1 [Example 88, 4-fluoro-β-(4-fluorophenyl)-N-(3-fluoro-2-{2-[(2R,5R)-5-({[(2,2,2-trifluoro-ethoxy)carbonyl]amino}methyl)morpholin-2-yl]ethyl}phenyl)-L-phenylalaninamide]	–	pEC50 (HIV-1 (H9IIIB strain)): 6.35
COC(=O)N[C@H](C(=O)Nc1cncc(F)c1CC[C@@H]1CN[C@H](COC(=O)NCC(F)(F)F)CO1)[C@@H](c1ccc(Cl)cc1)c1cccc(OC(F)(F)F)c1 [Example 106, (βS)-β-(4-Chlorophenyl)-N-(5-fluoro-4-{2-[(2R,5S)-5-({[(2,2,2-trifluoroethyl)carbamoyl]oxy}methyl)morpholin-2-yl]ethyl}pyridin-3-yl)-Nα-(methoxycarbonyl)-3-(trifluoromethoxy)-L-phenylalaninamide]	–	pEC50 (HIV-1 (H9IIIB strain)): 8.19
COC(=O)N[C@H](C(=O)Nc1ccccc1CC[C@@H]1CN[C@H](CNC(=O)c2cccnn2)CO1)C(c1ccccc1)c1ccccc1 [Example 54, methyl N-[(1S)-1-benzhydryl-2-oxo-2-[[2-[2-[(2R,5R)-5-[(pyridazine-3-carbonyl-amino)methyl]morpholin-2-yl]ethyl]phenyl]amino]ethyl] carbamate]	7.59	–
COC(=O)N[C@H](C(=O)Nc1ccccc1CC[C@@H]1CN[C@H](COC(=O)NC(C2CC2)C(F)(F)F)CO1)C(c1ccccc1)c1ccccc1 (stereo partly drawn) [Example 31, N-(2-{2-[(2R,5S)-5-({[(1-cyclopropyl-2,2,2 trifluoroethyl)carbamoyl]oxy}methyl)morpholin-2-yl]ethyl}phenyl)-Nα-(methoxycarbonyl)-β-phenyl-L-phenylalaninamide]	7.54	–
COC(=O)N[C@H](C(=O)Nc1ccccc1CC[C@@H]1CN[C@H](CNC(=O)c2ccccc2)CO1)C(c1ccccc1)c1ccccc1 [Example 52, Nα-(methoxycarbonyl)-β-phenyl-N-(2-{2-[(2R,5R)-5-{[(phenylcarbonyl)amino]methyl}morpholin-2-yl]ethyl}phenyl)-L-phenylalaninamide]	7.02	–
COC(=O)N[C@H](C(=O)Nc1ccccc1CC[C@@H]1CN[C@H](CO)CO1)C(c1ccccc1)c1ccccc1 [Example 61, N-(2-{2-[(2R,5R)-5-(hydroxymethyl)morpholin-2-yl]ethyl}phenyl)-Nα-(methoxycarbonyl)-β-phenyl-L-phenylalaninamide]	6.80	–
O=C(C[C@H](CC1CC1)c1ccccc1)Nc1cccc(F)c1CC[C@@H]1CN[C@H](COC(=O)NCC(F)(F)F)CO1 [Example 163, {(3S,6R)-6-[2-(2-{[(3S)-4-cyclopropyl-3-phenyl-butanoyl]amino}-6-fluoro-phenyl)ethyl]morpholin-3-yl}methyl (2,2,2-trifluoroethyl)carbamate]	5.96	–
COC(=O)N[C@H](C(=O)Nc1ccccc1CC[C@@H]1CN[C@H](CCc2ccccc2NC(=O)NCc2ccccc2)CO1)C(c1ccccc1)c1ccccc1 [Example 75, methyl N-[(1S)-1-benzhydryl-2-[[2-[2-[(2R,5R)-5-[2-[2-(benzylcarbamoylamino)phenyl]ethyl]morpholin-2-yl]ethyl]phenyl]amino]-2-oxo-ethyl]carbamate]	8.39	–
COC(=O)N[C@H](C(=O)Nc1ccccc1CC[C@@H]1CN[C@H](COc2ccccc2)CO1)C(c1ccccc1)c1ccccc1 [Example 63, Nα-(methoxycarbonyl)-N-(2-{2-[(2R,5S)-5-(phenoxymethyl)morpholin-2-yl]ethyl}phenyl)-β-phenyl-L-phenylalaninamide]	7.31	–
O=C(C[C@H](c1ccccc1)c1ccncc1)Nc1cccc(F)c1CC[C@@H]1CN[C@H](COC(=O)NCC(F)(F)F)CO1 [Example 162, {(3S,6R)-6-[2-(2-fluoro-6-{[(3R)-3-phenyl-3-pyridin-4-ylpropanoyl]amino}phenyl)ethyl]morpholin-3-yl}methyl (2,2,2-trifluoroethyl)carbamate]	6.29	–
N[C@H](C(=O)Nc1cncc(F)c1CC[C@@H]1CN[C@H](COC(=O)N2CCOCC2)CO1)C(c1ccc(F)cc1)c1ccc(F)cc1 [Example 197, {(3S,6R)-6-[2-(3-fluoro-5-{[4-fluoro-β-(4-fluorophenyl)-L-phenylalanyl]amino}pyridin-4-yl)ethyl]morpholin-3-yl}methyl morpholine-4-carboxylate]	7.17	–
COC(=O)N[C@H](C(=O)Nc1ccccc1CC[C@@H]1CN[C@H](COC(=O)NCc2ccccc2F)CO1)C(c1ccccc1)c1ccccc1 [Example 12, N-(2-{2-[(2R,5S)-5-({[(2-fluorobenzyl)carbamoyl]oxy}methyl)morpholin-2-yl]ethyl}phenyl)-Nα-(methoxycarbonyl)-β-phenyl-L-phenylalaninamide]	8.44	–
COC(=O)N[C@H](C(=O)Nc1c(CC[C@@H]2CN[C@H](COC(=O)NCc3ccc(F)cc3)CO2)cc[nH]c1=O)C(c1ccccc1)c1ccccc1 [Example 38, N-(4-{2-[(2R,5S)-5-({[(4-fluorobenzyl)carbamoyl]oxy}methyl)morpholin-2-yl]ethyl}-2-oxo-1,2-dihydropyridin-3-yl)-Nα-(methoxycarbonyl)-β-phenyl-L-phenylalaninamide]	9.22	–
N[C@H](C(=O)Nc1cncc(F)c1CC[C@@H]1CN[C@H](COC(=O)NC2(c3ccncc3)CCC2)CO1)C(c1ccc(F)cc1)c1ccc(F)cc1 [Example 194, 4-fluoro-β-(4-fluorophenyl)-N-(5-fluoro-4-{2-[(2R,5S)-5-({[(1-pyridin-4-ylcyclobutyl)carbamoyl]oxy}methyl)morpholin-2-yl]ethyl}pyridin-3-yl)-L-phenylalaninamide]	7.00	–
N[C@@H](Cc1ccccc1Cl)C(=O)Nc1cccc(F)c1CC[C@@H]1CN[C@H](COC(=O)NCc2ccc(F)cc2)CO1 [Example 204, 2-chloro-N-(3-fluoro-2-{2-[(2R,5S)-5-({[(4-fluorobenzyl)carbamoyl]oxy}methyl)morpholin-2-yl]ethyl}phenyl)-L-phenylalaninamide]	7.59	–
COC(=O)N[C@H](C(=O)Nc1ccccc1CC[C@@H]1CN[C@H](CNC(=O)Oc2ccccc2)CO1)C(c1ccccc1)c1ccccc1 [Example 51, Nα-(methoxycarbonyl)-N-(2-{2-[(2R,5R)-5-{[(phenoxycarbonyl)amino]methyl}morpholin-2-yl]ethyl}phenyl)-β-phenyl-L-phenylalaninamide]	–	IC50 (wildtype HIV-1 protease; Pepcleav (nM)): 38 nM
COC(=O)N[C@H](C(=O)Nc1ccccc1CC[C@@H]1CN[C@H](COC(=O)N[C@H]2COC[C@@H]2F)CO1)C(c1ccccc1)c1ccccc1 [Example 29, N-[2-(2-{(2R,5S)-5-[({[(3S,4R)-4-fluorotetrahydrofuran-3-yl]carbamoyl}oxy)methyl]morpholin-2-yl}ethyl)phenyl]-Nα-(methoxycarbonyl)-β-phenyl-L-phenylalaninamide]	7.74	–
COC(=O)N[C@H](C(=O)Nc1ccccc1CC[C@@H]1CN[C@H](CNC(=O)Nc2cccnn2)CO1)C(c1ccccc1)c1ccccc1 [Example 41, methyl N-[(1S)-1-benzhydryl-2-oxo-2-[[2-[2-[(2R,5R)-5-[(pyridazin-3-ylcarbamoyl-amino)methyl]morpholin-2-yl]ethyl]phenyl]amino]ethyl] carbamate]	8.54	–
CCN(CC)C(=O)OC[C@@H]1CO[C@H](CCc2ccccc2NC(=O)[C@@H](NC(=O)OC)C(c2ccccc2)c2ccccc2)CN1 [Example 25]	6.92	–
